In ChEMBL document CHEMBL1201862, “PubChem BioAssay data set” (2004):
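Step 1: Grow cells in 96-well plates. Step 2: Expose to compound for 48 hours at 5 concentrations. Step 3: Interpolate endpoints linearly; if unreached, use highest concentration. GI50 marks 50% less growth.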 Activity calls are given as the source filed them. No stated cut-off is given here; in the data, active = GI50 up to about 1.1 µM and inactive = higher.

Experiments:
Assay in all cases: inhibition of tumour cell growth, NCI panel, 48 h
SK-OV-3 = system: SK-OV-3
SW-620 = system: SW-620
EKVX = system: EKVX
KM-20L2 = system: KM-20L2
OVCAR-3 = system: OVCAR-3
M19-MEL = system: M19-MEL
OVCAR-4 = system: OVCAR-4
DMS-114 = system: DMS-114
LOX IMVI = system: LOX IMVI
RPMI-8226 = system: RPMI-8226
NCI-H522 = system: NCI-H522
SF-295 = system: SF-295
KM12 = system: KM12
MOLT-4 = system: MOLT-4
SNB-75 = system: SNB-75
IGROV-1 = system: IGROV-1
CCRF-CEM = system: CCRF-CEM
M14 = system: M14
SF-539 = system: SF-539
HT-29 = system: HT-29
UACC-62 = system: UACC-62
A498 = system: A498
COLO 205 = system: COLO 205
NCI-H460 = system: NCI-H460
HCC 2998 = system: HCC 2998
CAKI-1 = system: CAKI-1
ACHN = system: ACHN
UO-31 = system: UO-31
SK-MEL-5 = system: SK-MEL-5
SNB-19 = system: SNB-19
HCT-15 = system: HCT-15
DLD-1 = system: DLD-1
HOP-92 = system: HOP-92
OVCAR-8 = system: OVCAR-8
SNB-78 = system: SNB-78
K562 = system: K562
SF-268 = system: SF-268
U-251 = system: U-251
LXFL 529 = system: LXFL 529
786-0 = system: 786-0
SN12C = system: SN12C
TK-10 = system: TK-10
NCI-H226 = system: NCI-H226
HOP-62 = system: HOP-62
HCT-116 = system: HCT-116
UACC-257 = system: UACC-257
DMS-273 = system: DMS-273
A549 = system: A549
HL-60 = system: HL-60
XF498 = system: XF498
Hs-578T = system: Hs-578T
DU-145 = system: DU-145
NCI/ADR-RES = system: NCI/ADR-RES
BT-549 = system: BT-549
T47D = system: T47D
MCF7 = system: MCF7
PC-3 = system: PC-3
MDA-N = system: MDA-N
OVCAR-5 = system: OVCAR-5
Malme-3M = system: Malme-3M
RXF 393 = system: RXF 393
SR = system: SR
SK-MEL-28 = system: SK-MEL-28
MDA-MB-231 = system: MDA-MB-231
SK-MEL-2 = system: SK-MEL-2
MDA-MB-435 = system: MDA-MB-435
NCI-H23 = system: NCI-H23

## c1ccc(SC2CCSc3ccccc3C2Sc2ccccc2)cc1 (configuration not stated)
SK-OV-3
  GI50: > 10 µM (inactive)
SW-620
  GI50: > 100 µM (inactive)
EKVX
  GI50: > 100 µM (inactive)
KM-20L2
  GI50: > 100 µM (inactive)
OVCAR-3
  GI50: 37 µM (inactive)
M19-MEL
  GI50: > 10 µM (inactive)
OVCAR-4
  GI50: > 100 µM (inactive)
DMS-114
  GI50: > 10 µM (inactive)
LOX IMVI
  GI50: > 100 µM (inactive)
RPMI-8226
  GI50: 96.4 µM (inactive)
NCI-H522
  GI50: > 100 µM (inactive)
SF-295
  GI50: 35.2 µM (inactive)
KM12
  GI50: 56.1 µM (inactive)
MOLT-4
  GI50: > 100 µM (inactive)
SNB-75
  GI50: 19.8 µM (inactive)
IGROV-1
  GI50: > 10 µM (inactive)
CCRF-CEM
  GI50: > 100 µM (inactive)
M14
  GI50: > 100 µM (inactive)
SF-539
  GI50: > 100 µM (inactive)
HT-29
  GI50: 69.2 µM (inactive)
UACC-62
  GI50: > 10 µM (inactive)
A498
  GI50: > 100 µM (inactive)
COLO 205
  GI50: > 10 µM (inactive)
NCI-H460
  GI50: > 100 µM (inactive)
HCC 2998
  GI50: > 100 µM (inactive)
CAKI-1
  GI50: 22.8 µM (inactive)
ACHN
  GI50: > 100 µM (inactive)
UO-31
  GI50: 6.9 µM (inactive)
SK-MEL-5
  GI50: 20.9 µM (inactive)
SNB-19
  GI50: 94.4 µM (inactive)
HCT-15
  GI50: > 100 µM
DLD-1
  GI50: > 100 µM (inactive)
HOP-92
  GI50: 18.8 µM (inactive)
OVCAR-8
  GI50: > 100 µM (inactive)
SNB-78
  GI50: > 100 µM (inactive)
K562
  GI50: > 100 µM (inactive)
SF-268
  GI50: > 100 µM (inactive)
U-251
  GI50: > 100 µM (inactive)
LXFL 529
  GI50: > 100 µM (inactive)
786-0
  GI50: > 100 µM (inactive)
SN12C
  GI50: > 100 µM (inactive)
TK-10
  GI50: > 100 µM (inactive)
NCI-H226
  GI50: > 100 µM (inactive)
HOP-62
  GI50: > 100 µM (inactive)
HCT-116
  GI50: 9.75 µM (inactive)
UACC-257
  GI50: 27.9 µM (inactive)
DMS-273
  GI50: > 100 µM (inactive)
A549
  GI50: > 100 µM (inactive)
HL-60
  GI50: 4.73 µM (inactive)
XF498
  GI50: > 100 µM (inactive)

## c1nc(N2CC2)c2cnn(C3CCCCO3)c2n1 (configuration not stated)
Hs-578T
  GI50: > 100 µM (inactive)
SK-OV-3
  GI50: > 100 µM (inactive)
DU-145
  GI50: > 100 µM (inactive)
SW-620
  GI50: > 100 µM (inactive)
NCI/ADR-RES
  GI50: > 100 µM (inactive)
EKVX
  GI50: > 100 µM (inactive)
KM-20L2
  GI50: > 100 µM (inactive)
OVCAR-3
  GI50: > 100 µM (inactive)
M19-MEL
  GI50: > 100 µM (inactive)
OVCAR-4
  GI50: > 100 µM (inactive)
DMS-114
  GI50: > 100 µM (inactive)
BT-549
  GI50: > 100 µM (inactive)
LOX IMVI
  GI50: > 100 µM (inactive)
RPMI-8226
  GI50: > 100 µM (inactive)
NCI-H522
  GI50: > 100 µM (inactive)
T47D
  GI50: > 100 µM (inactive)
SF-295
  GI50: > 100 µM (inactive)
KM12
  GI50: > 100 µM (inactive)
MOLT-4
  GI50: > 100 µM (inactive)
SNB-75
  GI50: > 100 µM (inactive)
MCF7
  GI50: > 100 µM (inactive)
IGROV-1
  GI50: > 100 µM (inactive)
PC-3
  GI50: > 100 µM (inactive)
CCRF-CEM
  GI50: > 100 µM (inactive)
M14
  GI50: > 100 µM (inactive)
MDA-N
  GI50: > 100 µM (inactive)
SF-539
  GI50: > 100 µM (inactive)
HT-29
  GI50: > 100 µM (inactive)
UACC-62
  GI50: > 100 µM (inactive)
A498
  GI50: > 100 µM (inactive)
COLO 205
  GI50: > 100 µM (inactive)
NCI-H460
  GI50: > 100 µM (inactive)
OVCAR-5
  GI50: > 100 µM (inactive)
HCC 2998
  GI50: > 100 µM (inactive)
CAKI-1
  GI50: > 100 µM (inactive)
ACHN
  GI50: > 100 µM (inactive)
UO-31
  GI50: > 100 µM (inactive)
Malme-3M
  GI50: > 100 µM (inactive)
SK-MEL-5
  GI50: > 100 µM (inactive)
SNB-19
  GI50: > 100 µM (inactive)
HCT-15
  GI50: > 100 µM
DLD-1
  GI50: > 100 µM (inactive)
HOP-92
  GI50: > 100 µM (inactive)
RXF 393
  GI50: > 100 µM (inactive)
OVCAR-8
  GI50: > 100 µM (inactive)
SNB-78
  GI50: > 100 µM (inactive)
K562
  GI50: 36.6 µM (inactive)
SF-268
  GI50: > 100 µM (inactive)
U-251
  GI50: > 100 µM (inactive)
SR
  GI50: > 100 µM (inactive)
LXFL 529
  GI50: > 100 µM (inactive)
786-0
  GI50: > 100 µM (inactive)
SN12C
  GI50: > 100 µM (inactive)
SK-MEL-28
  GI50: > 100 µM (inactive)
TK-10
  GI50: > 100 µM (inactive)
NCI-H226
  GI50: > 100 µM (inactive)
MDA-MB-231
  GI50: > 100 µM (inactive)
HOP-62
  GI50: > 100 µM (inactive)
HCT-116
  GI50: > 100 µM (inactive)
UACC-257
  GI50: > 100 µM (inactive)
DMS-273
  GI50: > 100 µM (inactive)
SK-MEL-2
  GI50: > 100 µM (inactive)
A549
  GI50: > 100 µM (inactive)
MDA-MB-435
  GI50: > 100 µM (inactive)
HL-60
  GI50: > 100 µM (inactive)
XF498
  GI50: > 100 µM (inactive)
NCI-H23
  GI50: > 100 µM (inactive)
